Data published in patent US20100267561A1, “HERBICIDAL PYRIDAZINONE DERIVATIVES” (priority 2007, published 2010).

Tests used:
Experiment in all cases: Test A pre-/postemergence plant response
Format in all cases: in vivo
[1] = test system: barnyardgrass (Echinochloa crus-galli)
Excerpt: (§1) Seeds of species selected from barnyardgrass (Echinochloa crus-galli), large crabgrass (Digitaria sanguinalis), giant foxtail (Setaria faberi), blackgrass (Alopecurus myosuroides), canarygrass (Phalaris minor), morningglory (Ipomoea coccinea), pigweed (Amaranthus retroflexus), velvetleaf (Abutilon theophrasti), wheat (Triticum aestivum), and corn (Zea mays) were planted into a blend of loam soil and sand and treated preemergence with a directed soil spray using test chemicals formulated in a non-phytotoxic solvent mixture which included a surfactant. At the same time these species were also treated with postemergence applications of test chemicals formulated in the same manner.
(§2) Plants ranged in height from 2 to 10 cm and were in the one- to two-leaf stage for the postemergence treatment. Treated plants and untreated controls were maintained in a greenhouse for approximately 10 days, after which time all treated plants were compared to untreated controls and visually evaluated for injury. Plant response ratings, summarized in Table A, are based on a 0 to 100 scale where 0 is no effect and 100 is complete control. A dash (-) response means no test results.

corn (Zea mays) = test system: corn (Zea mays)
Excerpt: as §1, §2

[2] = test system: giant foxtail (Setaria faberi)
Excerpt: as §1, §2

[3] = test system: large crabgrass (Digitaria sanguinalis)
Excerpt: as §1, §2

[4] = test system: morningglory (Ipomoea coccinea)
Excerpt: as §1, §2

[5] = test system: pigweed (Amaranthus retroflexus)
Excerpt: as §1, §2

[6] = test system: velvetleaf (Abutilon theophrasti)
Excerpt: as §1, §2

[7] = test system: wheat (Triticum aestivum)
Excerpt: as §1, §2

[8] = Postemergence, 125 g ai/ha, 0 to 100 scale, 0 no effect, 100 complete control
[9] = Postemergence, 500 g ai/ha, 0 to 100 scale, 0 no effect, 100 complete control
[10] = Preemergence, 125 g ai/ha, 0 to 100 scale (0 no effect, 100 complete control)
[11] = Preemergence, 500 g ai/ha, 0 to 100 scale (0 no effect, 100 complete control)
[12] = Postemergence, 62 g ai/ha, 0 to 100 scale, 0 no effect, 100 complete control
[13] = Postemergence, 250 g ai/ha, 0 to 100 scale, 0 no effect, 100 complete control
[14] = Preemergence, 62 g ai/ha, 0 to 100 scale, 0 no effect, 100 complete control
[15] = Preemergence, 250 g ai/ha, 0 to 100 scale (0 no effect, 100 complete control)
[16] = Postemergence, 31 g ai/ha, 0 to 100 scale (0 no effect, 100 complete control)
[17] = Preemergence, 31 g ai/ha, 0 to 100 scale, 0 is no effect, 100 is complete control

## Cc1nc(-c2ccc(C(F)(F)F)cc2)sc1-c1c(O)cnn(C)c1=O [Compound 24]
[1]; [8]
  Plant response rating, Barnyardgrass: 0
[1]; [9]
  Plant response rating, Barnyardgrass: 10
[1]; [10]
  Plant response rating, Barnyardgrass: 0
[1]; [11]
  Plant response rating, Barnyardgrass: 30
Corn (Zea mays); [8]
  Plant response rating, Corn: 0
Corn (Zea mays); [9]
  Plant response rating, Corn: 20
Corn (Zea mays); [10]
  Plant response rating, Corn: 0
Corn (Zea mays); [11]
  Plant response rating, Corn: 0
[2]; [8]
  Plant response rating, Foxtail, Giant: 0
[2]; [9]
  Plant response rating, Foxtail, Giant: 40
[2]; [10]
  Plant response rating, Foxtail, Giant: 0
[2]; [11]
  Plant response rating, Foxtail, Giant: 80
[3]; [8]
  Plant response rating, Crabgrass, Large: 0
[3]; [9]
  Plant response rating, Crabgrass, Large: 10
[3]; [10]
  Plant response rating, Crabgrass, Large: 0
[3]; [11]
  Plant response rating, Crabgrass, Large: 60
[4]; [8]
  Plant response rating, Morningglory: 0
[4]; [9]
  Plant response rating, Morningglory: 0
[4]; [10]
  Plant response rating, Morningglory: 0
[4]; [11]
  Plant response rating, Morningglory: 0
[5]; [8]
  Plant response rating, Pigweed: 0
[5]; [9]
  Plant response rating, Pigweed: 0
[5]; [10]
  Plant response rating, Pigweed: 0
[5]; [11]
  Plant response rating, Pigweed: 0
[6]; [8]
  Plant response rating, Velvetleaf: 0
[6]; [9]
  Plant response rating, Velvetleaf: 0
[6]; [10]
  Plant response rating, Velvetleaf: 0
[6]; [11]
  Plant response rating, Velvetleaf: 0
[7]; [8]
  Plant response rating, Wheat: 0
[7]; [9]
  Plant response rating, Wheat: 20
[7]; [10]
  Plant response rating, Wheat: 0
[7]; [11]
  Plant response rating, Wheat: 0

## CCc1cc(-c2ccc(C(F)(F)F)cc2)nn1-c1c(OC(=O)C(C)(C)C)cnn(C)c1=O [Compound 18]
[1]; [12]
  Plant response rating, Barnyardgrass: 90
[1]; [13]
  Plant response rating, Barnyardgrass: 100
[1]; [14]
  Plant response rating, Barnyardgrass: 100
[1]; [15]
  Plant response rating, Barnyardgrass: 100
Corn (Zea mays); [12]
  Plant response rating, Corn: 80
Corn (Zea mays); [13]
  Plant response rating, Corn: 90
Corn (Zea mays); [14]
  Plant response rating, Corn: 90
Corn (Zea mays); [15]
  Plant response rating, Corn: 90
[2]; [12]
  Plant response rating, Foxtail, Giant: 90
[2]; [13]
  Plant response rating, Foxtail, Giant: 100
[2]; [14]
  Plant response rating, Foxtail, Giant: 100
[2]; [15]
  Plant response rating, Foxtail, Giant: 100
[3]; [12]
  Plant response rating, Crabgrass, Large: 80
[3]; [13]
  Plant response rating, Crabgrass, Large: 100
[3]; [14]
  Plant response rating, Crabgrass, Large: 100
[3]; [15]
  Plant response rating, Crabgrass, Large: 100
[4]; [12]
  Plant response rating, Morningglory: 0
[4]; [13]
  Plant response rating, Morningglory: 0
[4]; [14]
  Plant response rating, Morningglory: 0
[4]; [15]
  Plant response rating, Morningglory: 0
[5]; [12]
  Plant response rating, Pigweed: 0
[5]; [13]
  Plant response rating, Pigweed: 0
[5]; [14]
  Plant response rating, Pigweed: 0
[5]; [15]
  Plant response rating, Pigweed: 0
[6]; [12]
  Plant response rating, Velvetleaf: 0
[6]; [13]
  Plant response rating, Velvetleaf: 0
[6]; [14]
  Plant response rating, Velvetleaf: 0
[6]; [15]
  Plant response rating, Velvetleaf: 0
[7]; [12]
  Plant response rating, Wheat: 70
[7]; [13]
  Plant response rating, Wheat: 80
[7]; [14]
  Plant response rating, Wheat: 90
[7]; [15]
  Plant response rating, Wheat: 100

## Cn1ncc(O)c(-c2nn(-c3ccc(C(F)(F)F)cn3)cc2Br)c1=O [Compound 71]
[1]; [16]
  Plant response rating, Barnyardgrass: 10
[1]; [8]
  Plant response rating, Barnyardgrass: 90
[1]; [17]
  Plant response rating, Barnyardgrass: 0
[1]; [10]
  Plant response rating, Barnyardgrass: 40
Corn (Zea mays); [16]
  Plant response rating, Corn: 0
Corn (Zea mays); [8]
  Plant response rating, Corn: 40
Corn (Zea mays); [17]
  Plant response rating, Corn: 0
Corn (Zea mays); [10]
  Plant response rating, Corn: 20
[2]; [16]
  Plant response rating, Foxtail, Giant: 30
[2]; [8]
  Plant response rating, Foxtail, Giant: 90
[2]; [17]
  Plant response rating, Foxtail, Giant: 0
[2]; [10]
  Plant response rating, Foxtail, Giant: 100
[3]; [16]
  Plant response rating, Crabgrass, Large: 20
[3]; [8]
  Plant response rating, Crabgrass, Large: 80
[3]; [17]
  Plant response rating, Crabgrass, Large: 10
[3]; [10]
  Plant response rating, Crabgrass, Large: 60
[4]; [16]
  Plant response rating, Morningglory: 0
[4]; [8]
  Plant response rating, Morningglory: 0
[4]; [17]
  Plant response rating, Morningglory: 0
[4]; [10]
  Plant response rating, Morningglory: 0
[5]; [16]
  Plant response rating, Pigweed: 0
[5]; [8]
  Plant response rating, Pigweed: 0
[5]; [17]
  Plant response rating, Pigweed: 0
[5]; [10]
  Plant response rating, Pigweed: 0
[6]; [16]
  Plant response rating, Velvetleaf: 0
[6]; [8]
  Plant response rating, Velvetleaf: 0
[6]; [17]
  Plant response rating, Velvetleaf: 0
[6]; [10]
  Plant response rating, Velvetleaf: 0
[7]; [16]
  Plant response rating, Wheat: 0
[7]; [8]
  Plant response rating, Wheat: 80
[7]; [17]
  Plant response rating, Wheat: 0
[7]; [10]
  Plant response rating, Wheat: 50
